Reference: US20110224197A1, “PYRIMIDINES AND PYRIDINES USEFUL AS INHIBITORS OF PROTEIN KINASES” (Vertex Pharmaceuticals Incorporated, priority 2008, published 2011)

System: Middle Cerebral Artery Occlusion in adult male Wistar rats
Assay: Post Stroke Recovery Model II (MCA electrocoagulation, behavioral tests)
Assay type: in vivo, rat
Source text: Adult male Wistar rats are pre-trained on a battery of behavioral tests including: tray reach, gridwalk, forelimb asymmetry (cylinder bracing), forelimb inhibition (swim test) (see below for detailed description of tests). Following pre-stroke behavioral assessment, the rats received surgery, during which a stroke is induced. The rats are pseudo-randomly divided into 5 equal groups (n=12) ensuring an equal number of right and left strokes within each treatment group. The first group receives sham surgery with vehicle as treatment. Administration of the test compound and vehicle (dose, route, timing) is determined by the sponsor. The core body temperature is maintained at 37° C. (+/−1°).
Following surgery, all animals are behaviorally assessed 1, 7, and 14 d post-stroke. At the conclusion of behavioral assessment, all rats undergo an MRI to determine infarct volume. Group behavioral performance and stroke volume are compared between groups using one way analysis of variance to determine therapeutic benefit of the compound in rate and extent of recovery of function following MCAO stroke.
Each animal is weighed (average weights were 340 g) and then anesthetized with isoflurane (4% isoflurane carried on 21/min medical grade oxygen to induce surgical plane and then 2% with 2 l/min oxygen to maintain a surgical plane). Following induction of anesthesia each rat is individually marked with an ear-punch and administered a subcutaneous dose of buprenorphine (0.025 mg/kg). Rectal temperature is monitored and maintained at 37° C.+/−1° C. for the duration of the surgery and until the rat is awake and mobile (approximately 3 hr).
The rat is then placed into a stereotaxic apparatus positioned such that the lateral aspect of the head was facing up. The skin between the eye […] and ear is shaved and washed with surgical antiseptic scrub. A vertical incision is made midway between the right orbit and external auditory canal. The underlying temporalis muscle is incised, detached from the skull and retracted with care to preserve the facial nerve. Two sutures hold the temporal muscle away from the lateral aspect of the skull. A craniotomy is performed from the posterior zygoma and along the temporal ridge of the cranium extending ventrally to expose the middle cerebral artery (MCA) and olfactory tract. The dura is opened, and the base of the MCA and the anterior portion of the first branch is electrocoagulated ventral to the olfactory tract, resulting in infarction of the right dorsolateral cerebral cortex.
Time at which stroke occurred is noted upon completion of the electrocoagulation of the MCA. Once bleeding is controlled, the temporal muscle is replaced and the skin sutured. The rat is then removed from the stereotaxic apparatus and moved to the recovery room. A second subcutaneous dose of buprenorphine (0.025 mg/kg) is administered along with 2 cc of Ringers solution. Water, wet rat chow mash, and a warming blanket under 1/2 the cage is made available while in the recovery room. Once the rat is awake and seen to be eating and drinking, it is moved back into its cage in the animal colony.
Forepaw use is measured with a procedure that is adapted from the method devised by Whishaw, O'Connor, and Dunnett (1986). Each animal is food-restricted such that feeding time occurs after testing each day. The animals are placed in test cages (10×18×10 cm high) with floors and fronts constructed of 2-mm bars, 9 mm apart edge to edge. […]

SMILES: Cc1nc(-c2ccccc2Cl)nc(Nc2n[nH]c3ncc(F)cc23)c1C [Compound I-37, N-(2-(2-chlorophenyl)-5,6-dimethylpyrhnidin-4-yl)-5-fluoro-1H-pyrazolo[3,4-b]pyridin-3-amine]
- Forelimb inhibition (swimming test) deficit (7 and 14 days after stroke): significantly ameliorated this deficit
- Gridwalk deficit (7 and 14 days after stroke): significantly ameliorated this deficit
- Tray reaching deficit compared with vehicle treatment (7 and 14 days after stroke): significantly ameliorated this deficit
- Forepaw asymmetry (cylinder test) deficit (low dose, 14 days after stroke): significantly ameliorated this deficit
- Adhesive removal test (rat, in vivo): did not show significant effect
